The values below are quoted from earlier work in patent US8187607B2, “Hapten-carrier conjugates and uses thereof” (Cytos Biotechnology AG, priority 2002, dated 2012).

This series deals with cigarette smokers. To be noted: at 12 months.

With `CC(NC(C)(C)C)C(=O)c1cccc(Cl)c1` (stereo not shown) [bupropion], the Abstinence rates entry was “about 30%”.
